# Results: patent publication EP2698385A1, “Detection of synthetic cannabinoids” (priority 2012, dated 2014)
# Key:
# [1] = system: antiserum raised to Immunogen II (Hapten B-BTG); test: Competitive ELISA microtiter plate assay (Example 19), antiserum raised to Immunogen II, Hapten A-HRP conjugate as detection reagent; assay type: binding, sheep
# Experimental: (§1) Aqueous solutions of the immunogens prepared in examples 5 and 13 were formulated with Freund's Complete Adjuvant (FCA) to form emulsions consisting of 2mg/ml Immunogen I and 2mg/ml of Immunogen II in 50%(v/v) FCA. Three sheep were immunised with each emulsion (1° immunisations), 0.25ml being intramuscularly injected at four sites in the rump of each animal. Subsequent immunisations (boosts 2-8) contained 1mg/ml Immunogen I and 1mg/ml Immunogen II. All boosts were emulsified in 50%(v/v) Freund's Incomplete Adjuvant (FIA) and administered to the appropriate sheep in the same manner as the 1° immunisations, at monthly intervals. Blood sampling took place 7-14 days after each boost. Each sample was processed to produce antiserum, which was further purified by caprylic acid and ammonium sulphate precipitation to yield an immunoglobulin (Ig) fraction. The Ig fraction was evaluated by competitive ELISA microtiter plate assay, as described in example 19 below.
# (§2) Example 19: Development of competitive ELISA for JWH synthetic cannabinoids and metabolites. • (a) The wells of an enhanced binding 96 well polystyrene microtiter plate were coated with the Ig fraction of the antiserum raised to Immunogen I (Hapten A-BTG - example 5) and diluted in 10mM Tris, pH8.5 (125µl/well). The appropriate antibody coating concentration was determined using standard ELISA checkerboard techniques. The plate was incubated for 2 hours at 37°C, washed 4 times over a 10-minute period with Tris buffered saline containing Tween 20 (TBST) and tapped dry. Standard solutions of JWH synthetic cannabinoids, metabolites and selected molecules were prepared in TBST and 50µl of each was added to the appropriate wells. 75µl of conjugate (Hapten A-HRP) diluted in Tris buffer containing EDTA, D-mannitol, sucrose, thimerosal and BSA, was added to each of the wells. The appropriate dilution of conjugate was also determined using standard ELISA checkerboard techniques. The plate was incubated at 25°C for 1 hour. The excess unbound conjugate was removed by washing 6 times over a 10-minute period with TBST and tapped dry. 125µl of tetramethylbenzedine (TMB) substrate solution was added to each well of the plate that was then incubated for 15-20 minutes in the dark at room temperature. The reaction was terminated by addition of 125µl of 0.2M sulphuric acid to each well. The absorbance was then measured at 450nm using a microtiter plate reader. Employing each series of standards, calibration curves were generated and these were used to determine the specificity of the immunoassay for the JWH synthetic cannabinoids, metabolites and selected molecules. The results of this study are presented in Tables 1 to 3, cross-reactivity being calculated according to the following formula: %CR = […] /IC50,CR X 100 [formula] Where %CR is the percentage cross-reactivity, IC50, YWH-018 is the concentration of JWH-018 that causes 50% displacement of signal and IC50, CR is the concentration of JWH synthetic cannabinoid/metabolite/selected molecule that causes 50% displacement of signal.
# Table 1: Data generated from a competitive microtiter plate assay for JWH synthetic cannabinoids and metabolites, employing antiserum raised to Immunogen II (Hapten B-BTG) and conjugate (Hapten A-HRP) as detection reagent. (b) In a similar manner to that described in Example 19(a), the wells of a 96 well microtiter plate were coated with the Ig fraction of the antiserum raised to Immunogen II ([…]). Conjugate (Hapten A-HRP) was employed as a detection reagent.
# [2] = system: antibodies raised to Immunogens I & II; test: Competitive ELISA (Example 19), sensitivity and cross-reactivity of selected molecules, one result for both antibodies; assay type: binding, sheep; details: result in words
# Experimental: as §1, §2
# Table 2: Data generated from a competitive microtiter plate assay for JWH synthetic cannabinoids and metabolites, employing antiserum raised to Immunogen I (Hapten A-BTG) and conjugate (Hapten A-HRP) as detection reagent. • (c) The resulting competitive ELISA for synthetic cannabinoids and metabolites was further employed to analyse urine and serum samples from 20 patients (Table 3). • (d) The resulting competitive ELISA for synthetic cannabinoids and metabolites was also employed to test for the 5-fluoropentyl derivative of JWH-018, (1-(5-fluoropentyl)indol-3yl (1-naphthyl) methanone (Table 4).
# [3] = Table 1, 40 ng/ml highest concentration tested
# [4] = Table 1, CR based on 100% for JWH-018
SMILES,"IC50 [1, 3]","% Cross-reactivity [1, 4]",binding / cross-reaction with antibodies raised from Immunogens I and II [2],"IC50 ([1]; first Table 4, Immunogen II)","% Cross-reactivity ([1]; first Table 4, Immunogen II, JWH-018 = 100)","IC50 ng/ml [1, 3]"
CCCCCn1cc(C(=O)c2ccc(Cl)c3ccccc23)c2ccccc21 [JWH-398],17.55 ng/mL,12.02%,bind,–,–,–
CCCCCn1cc(C(=O)c2cccc3ccccc23)c2c(O)cccc21 [JWH-018 4-hydroxyindole metabolite],9.16 ng/mL,23.03%,–,–,–,–
CCCCCn1cc(C(=O)c2cccc3ccccc23)c2ccc(O)cc21 [JWH-018 6-hydroxyindole metabolite],0.98 ng/mL,215.31%,–,–,–,–
"O=C(c1cccc2ccccc12)c1cn(CCN2CCOCC2)c2ccccc12 [WIN 55,225 (other name JWH-200), JWH-200]",1.66 ng/mL,127.11%,–,–,–,–
CCCCn1cc(C(=O)c2cccc3ccccc23)c2ccccc21 [JWH-073],1.56 ng/mL,135.26%,–,–,–,–
CCCCCn1cc(C(=O)c2cccc3ccccc23)c2ccccc21 [JWH-018],2.11 ng/mL,100.00%,–,1.97 ng/mL,100.00%,–
"O=C(c1cccc2ccccc12)c1c[nH]c2ccccc12 [3-(1-naphthoyl)-1H-Indole, 3-(1-naphthoyl)-1H-indole]",–,<< 5.28%,–,–,–,>> 40 ng/ml
CCCCCn1cc(C(=O)c2cccc3ccccc23)c2cc(O)ccc21 [JWH-018 5-hydroxyindole metabolite],1.62 ng/mL,130.25%,–,–,–,–
O=C(O)CCCCn1cc(C(=O)c2cccc3ccccc23)c2ccccc21 [JWH-018 N-pentanoic acid metabolite],5.48 ng/mL,38.50%,bind,–,–,–
O=C(c1cccc2ccccc12)c1cn(CCCCCO)c2ccccc12 [JWH-018 N-(5-hydroxypentyl) metabolite],1.15 ng/mL,183.48%,–,–,–,–
